Marks after values point to notes of the source that are not given here. One block for each compound: values may come before it.
What was measured:
patients with NSCLCs = conditions: sunitinib added to cisplatin and pemetrexed; ref [20]; cited from earlier work
[1] = Plasma pharmacokinetics of regorafenib, M-2 and M-5; assay type: in vivo, human; conditions: for AUC(0–24)md Ratio (90% CI) / Cmax,md Ratio (90% CI): Ratio = C2D1:C1D21; for AUC(0–24)md Ratio (90% CI) / Cmax,md Ratio (90% CI) / tmax,md: n = 6; for Tmax: human, plasma, oral; for tmax,md: median (range printed in cell); for coefficient of variation (CV) in AUC and Cmax: high variability, Table 3A
[2] = system: patients with advanced nsNSCLCs; conditions: single agent, ref [7], cited from earlier work
human xenograft models = conditions: greater potency than sorafenib; ref [4], [22]; cited from earlier work
[3] = Plasma pharmacokinetics of pemetrexed; assay type: in vivo, human
[4] = Cycle 1, Day 1 vs Cycle 2, Day 1
[5] = C2 D1, following cisplatin and pemetrexed

SMILES: CCN(CC)CCNC(=O)c1c(C)[nH]c(/C=C2\C(=O)Nc3ccc(F)cc32)c1C [sunitinib]
myelosuppression (patients with NSCLCs): substantial myelosuppression

SMILES: CNC(=O)c1cc(Oc2ccc(NC(=O)Nc3ccc(Cl)c(C(F)(F)F)c3)c(F)c2)ccn1 [Regorafenib, reference compound]
Mean AUC(0–24)md and Cmax,md on both days (in words) ([1]; C2 D1 vs C1 D21): comparable
AUC(0–24)md Ratio (90% CI) [1]: 0.93 (0.77–1.12)
Cmax,md Ratio (90% CI) [1]: 1.03 (0.70–1.51)
Tmax [1]: 4 h
Tmax ([1]; 60 mg/day): 4 h
patients with stable disease for ≥12 weeks ([2]; 4 of 18 evaluable patients): 22%
Grade 4 or 5 toxicities ([2]; 23 patients): no Grade 4 or 5 toxicities were observed
progression-free survival of one patient ([2]; one patient): ~40 weeks
tumor reduction in one patient ([2]; two non-consecutive measurements): > 30%
potency in human xenograft models relative to sorafenib (human xenograft models): ~ 3 times

SMILES: Nc1nc2[nH]cc(CCc3ccc(C(=O)N[C@@H](CCC(=O)O)C(=O)O)cc3)c2c(=O)[nH]1 [Pemetrexed]
mean AUC on both days (in words) [3, 4]: comparable
mean pemetrexed concentration, before vs after regorafenib (in words) [3, 4]: no difference
Cmax after regorafenib (in words) ([3]; Cycle 2, Day 1 vs Cycle 1, Day 1): slightly increased
AUC(0–infinity) Ratio (90% CI) ([3]; Ratio = C2D1:C1D1, n = 8): 1.05 (0.96–1.16)
Cmax Ratio (90% CI) ([3]; Ratio = C2D1:C1D1, n = 8): 1.20 (1.05–1.35)

The remaining lines, values ahead:

tmax,md ([1]; C1 D21, regorafenib alone): 4.0 (2–24 ^a) hours
tmax,md [1, 5]: 5.0 (0–6.25 ^a) hours
mean AUC(0–24)md lower following the pemetrexed and cisplatin treatment ([1]; C2 D1 vs C1 D21): 48%
mean Cmax,md lower following the pemetrexed and cisplatin treatment ([1]; C2 D1 vs C1 D21): 38%
AUC(0–24)md Ratio (90% CI) [1]: 0.52 (0.44–0.61)
Cmax,md Ratio (90% CI) [1]: 0.62 (0.46–0.83)
coefficient of variation (CV) in AUC and Cmax [1]: > 75%
SMILES: CNC(=O)c1cc(Oc2ccc(NC(=O)Nc3ccc(Cl)c(C(F)(F)F)c3)c(F)c2)cc[n+]1[O-] [M-2]

tmax,md ([1]; C1 D21, regorafenib alone): 16.0 (4–24 ^a) hours
tmax,md [1, 5]: 5.0(0–6.25 ^a) hours
Mean AUC(0–24)md and Cmax,md on both days (in words) ([1]; C2 D1 vs C1 D21): comparable
AUC(0–24)md Ratio (90% CI) [1]: 0.84 (0.67–1.06)
Cmax,md Ratio (90% CI) [1]: 0.97 (0.78–1.20)
coefficient of variation (CV) in AUC and Cmax [1]: > 150%
SMILES: NC(=O)c1cc(Oc2ccc(NC(=O)Nc3ccc(Cl)c(C(F)(F)F)c3)c(F)c2)cc[n+]1[O-] [M-5]

From paper PMC4750397 (Clinical lung cancer, 2015)
